Values quoted from earlier work as cited in patent publication US20210283219A1, “INHIBITION OF ALTERNATIVE COMPLEMENT PATHWAY FOR TREATMENT OF RETINAL ISCHEMIC INJURY AND GLAUCOMA” (Massachusetts Eye and Ear Infirmary, priority 2017, published 2021).

Biological target: complement factor B (Homo sapiens, UniProt P00751)
Sequence (P00751 26-764, species assumed): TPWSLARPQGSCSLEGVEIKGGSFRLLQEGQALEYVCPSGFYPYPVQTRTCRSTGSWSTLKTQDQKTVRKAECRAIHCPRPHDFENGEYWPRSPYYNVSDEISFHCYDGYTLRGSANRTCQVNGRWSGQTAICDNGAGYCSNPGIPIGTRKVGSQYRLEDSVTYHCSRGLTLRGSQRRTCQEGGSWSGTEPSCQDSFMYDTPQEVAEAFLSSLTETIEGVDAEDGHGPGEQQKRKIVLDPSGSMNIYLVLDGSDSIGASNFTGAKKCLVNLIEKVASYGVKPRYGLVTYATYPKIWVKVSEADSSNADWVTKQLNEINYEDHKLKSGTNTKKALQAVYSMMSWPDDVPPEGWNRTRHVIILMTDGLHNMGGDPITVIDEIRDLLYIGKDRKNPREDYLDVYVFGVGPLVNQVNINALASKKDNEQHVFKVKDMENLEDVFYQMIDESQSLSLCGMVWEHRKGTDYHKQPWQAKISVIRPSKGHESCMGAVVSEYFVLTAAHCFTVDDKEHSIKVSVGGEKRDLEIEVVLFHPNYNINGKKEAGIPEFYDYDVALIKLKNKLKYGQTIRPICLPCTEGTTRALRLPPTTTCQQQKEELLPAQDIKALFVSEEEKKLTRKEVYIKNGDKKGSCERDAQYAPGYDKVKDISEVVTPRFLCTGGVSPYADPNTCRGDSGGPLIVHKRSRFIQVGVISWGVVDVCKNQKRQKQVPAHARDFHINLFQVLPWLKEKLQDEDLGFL

inhibition of complement factor B: potently inhibits
Substance: (2S)-2-[[(2S)-2 [[(2S)-2-[[(2S)-[[(2S)-2-[[(2S)-2-acetamido-5-(diaminomethylideneamino)pentanoyl]amino]-4-methylpentanoyl]amino]-4,4-dimethylpentanoyl]amino]-4-methylpentanoyl]amino]propanoyl]amino]-5-(diaminomethylideneamino)pentanoic acid [Compound 51]
